Laboratory results taken from ChEMBL document CHEMBL5143671, “Discovery of (R)-(3-fluoropyrrolidin-1-yl)(6-((5-(trifluoromethyl)pyridin-2-yl)oxy)quinolin-2-yl)methanone (ABBV-318) and analogs as small molecule Nav1.7/ Nav1.8 blockers for the treatment of pain” (Bioorg Med Chem, 2022).
Values after ≈ are worked out from the molar mass of the structure shown.

Legend:
[1] = molecular target: Sodium channel protein type 5 subunit alpha (Homo sapiens, UniProt Q14524)
in vivo [2] = conditions: Sprague-Dawley, rat, po
in vitro [3] = conditions: PAMPA
physchem [4] = conditions: phosphate buffer
MDR1 = test: in vitro; conditions: dog, MDCK-MDR1
physchem [5] = conditions: octanol/water
[6] = molecular target: Voltage-gated inwardly rectifying potassium channel KCNH2 (Homo sapiens, UniProt Q12809);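 also: hERG channel blockade measured by electrophysiology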
Sequence of Voltage-gated inwardly rectifying potassium channel KCNH2 (Q12809 whole entry): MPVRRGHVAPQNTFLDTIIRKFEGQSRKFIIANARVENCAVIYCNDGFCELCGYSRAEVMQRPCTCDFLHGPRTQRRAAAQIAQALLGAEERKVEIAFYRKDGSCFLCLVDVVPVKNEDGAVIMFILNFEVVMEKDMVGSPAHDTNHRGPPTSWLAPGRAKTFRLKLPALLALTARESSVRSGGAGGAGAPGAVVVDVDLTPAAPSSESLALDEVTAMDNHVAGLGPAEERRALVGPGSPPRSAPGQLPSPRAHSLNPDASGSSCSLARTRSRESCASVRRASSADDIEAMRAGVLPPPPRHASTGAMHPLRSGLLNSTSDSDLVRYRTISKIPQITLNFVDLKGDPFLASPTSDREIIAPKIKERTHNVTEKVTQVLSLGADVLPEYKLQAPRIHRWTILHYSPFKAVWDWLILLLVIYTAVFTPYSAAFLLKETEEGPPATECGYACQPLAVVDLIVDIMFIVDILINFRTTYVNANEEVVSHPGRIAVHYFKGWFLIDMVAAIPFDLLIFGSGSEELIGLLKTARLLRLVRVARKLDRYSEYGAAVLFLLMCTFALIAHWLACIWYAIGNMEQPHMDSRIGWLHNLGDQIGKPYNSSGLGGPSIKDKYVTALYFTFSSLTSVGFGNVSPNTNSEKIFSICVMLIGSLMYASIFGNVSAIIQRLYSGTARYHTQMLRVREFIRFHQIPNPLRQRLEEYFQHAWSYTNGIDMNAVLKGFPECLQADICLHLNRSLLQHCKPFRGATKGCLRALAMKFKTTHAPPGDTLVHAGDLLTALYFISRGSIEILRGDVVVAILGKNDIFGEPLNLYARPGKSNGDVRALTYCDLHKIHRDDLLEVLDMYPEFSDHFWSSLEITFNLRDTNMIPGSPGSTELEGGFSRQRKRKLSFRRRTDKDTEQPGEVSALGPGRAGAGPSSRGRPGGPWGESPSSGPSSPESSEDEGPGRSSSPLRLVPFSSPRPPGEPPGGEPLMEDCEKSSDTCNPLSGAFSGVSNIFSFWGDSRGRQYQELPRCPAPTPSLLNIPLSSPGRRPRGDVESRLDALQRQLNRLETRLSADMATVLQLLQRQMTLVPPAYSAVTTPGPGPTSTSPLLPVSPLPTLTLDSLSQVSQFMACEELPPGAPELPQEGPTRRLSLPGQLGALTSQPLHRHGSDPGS

in vivo [7] = conditions: Sprague-Dawley, rat, iv
in vitro [8] = conditions: dog, MDCK
[9] = rat, microsomes, 0.5 h, 0.5 µM
[10] = human, microsomes, 0.5 h, 0.5 µM
in vivo [11] = conditions: Sprague-Dawley, rat, po; remark: listed apart in the source
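For logD in this document: distribution coefficient quantified using high-throughput LC-MS.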
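For solubility in this document: determined using a high-throughput solubility method.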

Sequence of Sodium channel protein type 5 subunit alpha (Q14524 whole entry): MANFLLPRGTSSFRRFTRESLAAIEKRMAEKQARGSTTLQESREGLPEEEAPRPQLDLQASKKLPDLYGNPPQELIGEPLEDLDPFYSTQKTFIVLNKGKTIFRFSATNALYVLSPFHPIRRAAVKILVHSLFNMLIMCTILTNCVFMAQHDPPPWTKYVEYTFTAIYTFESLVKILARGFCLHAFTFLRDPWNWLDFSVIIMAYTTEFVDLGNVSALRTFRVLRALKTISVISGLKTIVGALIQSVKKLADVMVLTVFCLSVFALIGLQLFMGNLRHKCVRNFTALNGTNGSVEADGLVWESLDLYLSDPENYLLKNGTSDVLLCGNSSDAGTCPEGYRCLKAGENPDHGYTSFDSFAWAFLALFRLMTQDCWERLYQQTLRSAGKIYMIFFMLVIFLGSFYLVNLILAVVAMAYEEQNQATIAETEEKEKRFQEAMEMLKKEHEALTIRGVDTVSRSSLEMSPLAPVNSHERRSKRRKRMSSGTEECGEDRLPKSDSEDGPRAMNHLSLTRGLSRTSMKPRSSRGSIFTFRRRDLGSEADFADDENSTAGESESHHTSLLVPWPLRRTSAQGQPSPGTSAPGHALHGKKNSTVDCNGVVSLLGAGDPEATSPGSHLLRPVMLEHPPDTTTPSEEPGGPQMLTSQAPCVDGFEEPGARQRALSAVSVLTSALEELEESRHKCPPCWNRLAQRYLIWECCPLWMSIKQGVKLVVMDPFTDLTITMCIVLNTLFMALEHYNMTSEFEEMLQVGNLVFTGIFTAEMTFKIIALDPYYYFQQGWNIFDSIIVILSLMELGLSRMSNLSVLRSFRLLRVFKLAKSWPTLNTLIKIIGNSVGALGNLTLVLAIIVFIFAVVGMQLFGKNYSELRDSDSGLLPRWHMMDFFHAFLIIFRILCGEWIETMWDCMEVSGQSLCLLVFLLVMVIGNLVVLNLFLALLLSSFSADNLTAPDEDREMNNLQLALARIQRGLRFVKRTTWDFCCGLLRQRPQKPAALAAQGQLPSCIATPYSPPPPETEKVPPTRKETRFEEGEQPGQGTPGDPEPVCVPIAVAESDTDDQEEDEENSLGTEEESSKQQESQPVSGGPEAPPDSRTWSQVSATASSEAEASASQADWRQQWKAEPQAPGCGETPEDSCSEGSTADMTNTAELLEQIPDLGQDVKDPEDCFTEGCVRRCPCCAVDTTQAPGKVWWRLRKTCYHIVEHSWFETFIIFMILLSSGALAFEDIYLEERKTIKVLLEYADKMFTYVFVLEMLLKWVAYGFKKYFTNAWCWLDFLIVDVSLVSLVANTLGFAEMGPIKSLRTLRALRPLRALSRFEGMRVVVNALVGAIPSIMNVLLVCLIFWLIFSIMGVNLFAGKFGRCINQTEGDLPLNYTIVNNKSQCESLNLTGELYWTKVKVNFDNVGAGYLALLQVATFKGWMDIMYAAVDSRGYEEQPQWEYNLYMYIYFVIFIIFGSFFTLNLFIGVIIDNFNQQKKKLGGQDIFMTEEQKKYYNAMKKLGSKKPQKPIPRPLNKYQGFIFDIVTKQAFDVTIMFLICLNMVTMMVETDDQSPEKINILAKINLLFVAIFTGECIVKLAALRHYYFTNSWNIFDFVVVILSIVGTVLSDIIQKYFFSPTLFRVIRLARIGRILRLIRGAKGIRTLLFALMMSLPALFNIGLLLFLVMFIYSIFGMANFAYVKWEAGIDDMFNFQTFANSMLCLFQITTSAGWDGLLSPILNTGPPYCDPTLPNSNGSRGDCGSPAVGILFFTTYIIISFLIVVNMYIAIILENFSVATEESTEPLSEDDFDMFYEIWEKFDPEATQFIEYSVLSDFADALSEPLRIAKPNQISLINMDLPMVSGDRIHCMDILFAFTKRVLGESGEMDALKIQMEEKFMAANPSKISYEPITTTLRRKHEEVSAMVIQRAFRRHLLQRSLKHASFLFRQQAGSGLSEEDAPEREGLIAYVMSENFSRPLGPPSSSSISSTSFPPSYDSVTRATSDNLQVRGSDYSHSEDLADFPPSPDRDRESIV

| SMILES | IC50 [1] [µM] | Papp (in vitro [3]) [×10⁻⁶ cm/s] | solubility (physchem [4]) [µM] | logD (physchem [5]) | IC50 [6] [µM] | Papp (in vitro [8]) [×10⁻⁶ cm/s] | CLH [9] [mL/min/kg] | CLH [10] [mL/min/kg] | other results |
| --- | --- | --- | --- | --- | --- | --- | --- | --- | --- |
| O=C(NC1CC(F)(F)C1)c1ccc2cc(Oc3ccc(C(F)(F)F)cn3)ccc2n1 | 33 | 12.1 | 5 (≈ 2.12 µg/mL) |  |  |  |  |  | bioavailability (in vivo [2]): 82% |
| O=C(c1ccc2cc(Oc3ccc(S(=O)(=O)C(F)(F)F)cc3)ccc2n1)N1CCNCC1 |  | 0.8 | 150 (≈ 69.8 µg/mL) | 3.8 | 4.27 |  |  |  | efflux ratio (MDR1): 45.5 |
| O=C(NC1CC(F)C1)c1ccc2cc(Oc3ccc(C(F)(F)F)cn3)ccc2n1 (configuration not stated) | 33 | 16.7 | 5 (≈ 2.03 µg/mL) |  |  |  |  |  |  |
| CN1CCN(C(=O)c2ccc3cc(Oc4ccccn4)ccc3n2)CC1 |  |  | 200 (≈ 69.7 µg/mL) | 1.1 | 16.8 | 8 |  |  | clearance (in vivo [7]): 70 mL/min/kg |
| O=C(NC1CCOC1)c1ccc2cc(Oc3ccc(C(F)(F)F)cn3)ccc2n1 (configuration not stated) | 33 |  |  |  |  |  |  |  |  |
| N#Cc1ccc(Oc2ccc3nc(OCCN4CCCCC4)ccc3c2)cc1 |  |  |  | 3.5 | < 1 |  | 217 | 50 |  |
| CN1CCN(C(=O)COc2ccc3cc(Oc4ccc(C(F)(F)F)cn4)ccc3n2)CC1 |  |  | 200 (≈ 89.3 µg/mL) |  |  |  | 967 | 100 |  |
| O=C(COc1ccc2cc(Oc3ccccn3)ccc2n1)N1CCCCC1 |  |  | 156 (≈ 56.7 µg/mL) | 3.6 | 30 | 66.9 | 2400 | 100 |  |
| O=C(c1ccc2cc(Oc3ccc(C(F)(F)F)cn3)ccc2n1)N1CCC1 | 33 |  |  |  |  |  |  |  |  |
| CC(=O)c1ccc(Oc2ccc3nc(C(=O)N4CCNCC4)ccc3c2)cc1 |  |  | 145 (≈ 54.4 µg/mL) | 3.1 | 23.6 | 19.7 |  |  | half-life (in vivo [11]): 3.3 h; bioavailability (in vivo [2]): 54% |
| N#Cc1ccc(Oc2ccc3nc(OCC(=O)N4CCNC(=O)C4)ccc3c2)cc1 |  |  | 141 (≈ 56.7 µg/mL) | 3.1 |  | 32.1 | < 50 | < 33 |  |
| O=C(c1ccc2cc(Oc3ccc(C(F)(F)F)cc3)ccc2n1)N1CCNCC1 |  | 2.1 | 140 (≈ 56.2 µg/mL) | 4 | 5.91 |  |  |  | efflux ratio (MDR1): 3.7 |
| N#Cc1ccc(Oc2ccc3nc(OCC(=O)N4CCOCC4)ccc3c2)cc1 |  |  |  | 3.4 |  | 30.1 | < 50 | 50 |  |
| O=C(c1ccc2cc(Oc3ccc(F)cn3)ccc2n1)N1CCNCC1 |  |  | 150 (≈ 52.9 µg/mL) |  | 17 |  |  |  |  |
| O=C(N[C@H]1C[C@@H](O)C1)c1ccc2cc(Oc3ccc(C(F)(F)F)cn3)ccc2n1 | 33 | 19.5 | 10 (≈ 4.03 µg/mL) |  |  |  |  |  | clearance (in vivo [7]): 60.3 mL/min/kg; bioavailability (in vivo [2]): 23% |
| O=C1CN(C(=O)COc2ccc3cc(Oc4ccc(C(F)(F)F)cn4)ccc3n2)CCN1 |  |  | 23 (≈ 10.3 µg/mL) | 3.2 |  | 44.1 | < 61.7 | < 56.7 |  |
| NC(=O)CNC(=O)COc1ccc2cc(Oc3ccccn3)ccc2n1 |  |  | 57.5 (≈ 20.3 µg/mL) | 2.2 | 30 | 8.7 | < 45 | 33 |  |
| O=C(c1ccc2cc(Oc3ccc(C(F)(F)F)cn3)ccc2n1)N1CC(F)(F)C1 | 10.2 | 3.04 | 5 (≈ 2.05 µg/mL) |  |  |  |  |  |  |
| O=C1CN(C(=O)COc2ccc3cc(Oc4ccccn4)ccc3n2)CCN1 |  |  | 200 (≈ 75.7 µg/mL) |  | 30 | 22 | < 65 | 65 |  |
| N#Cc1ccc(-c2ccc3c(ccc(=O)n3CC(=O)N3CCCCC3)c2)cc1 |  | 16.1 |  |  | 17 |  | 100 | 33 |  |
